Test results: US20150259331A1, “PROTOZOAN PARASITE GROWTH INHIBITORS” (Northeastern University, priority 2014, published 2015)
Counter-ions that a name gives are not always drawn. Like-named read-outs stand apart in the source and are kept apart here.

Assays:
[1] = system: T. brucei brucei Lister 427; assay: Trypanosome replication assay; format: cell-based, Trypanosoma brucei brucei; details: 48 h, 48 h, values ±7%
T. cruzi = T. cruzi growth inhibition; format: cell-based, Trypanosoma cruzi; details: for inhibition at 10 µM: read-out: T. cruzi % inh at 10 μM
L. major promastigote = L. major promastigote assay; format: cell-based
HepG2 cells = assay: HepG2 cell toxicity (MTT) assay; format: cell-based
Method: Then 2 μL of DMSO (control) or different concentrations of drugs prepared from 200× DMSO stocks were added to the cultures. […] All experiments were repeated thrice in independent studies where each dose was administered in duplicate (total n=6). HepG2 Cell Toxicity Assay. The 384 well MTT cytotoxicity assay is a modification of the MTT method described by Ferrari et al. optimized for 384-well throughput, with modifications described below.
HepG2 Cell Toxicity assay. The 384 well MTT cytotoxicity assay is a modification of the MTT method described by Ferrari et al.^1 ENREF—26_ENREF—26_ENREF—26 optimized for 384 well throughput. […] 4.25 μL of diluted test compound was then added to the 38.3 μL of media in each well providing a 10 fold final dilution of compound. […] After a 48 hour incubation period, 8 μL of a 1.5 mg/ml solution of MTT diluted in complete MEM media was added to each well. All plates were subsequently incubated in the dark for 1 hour at room temperature. After incubation, the media and drugs in each well was removed by shaking plate over sink, the plates are then left to dry in hood for 15 minutes. […] Plates are put on a 3-D rotator for 15-30 minutes. Absorbance was determined in all wells using a Tecan iControl 1.6 Infinite plate reader.

P. falciparum C235 = P. falciparum C235 assay; format: cell-based; details: read-out: P. falciparum C235 (EC50)
P. falciparum W2 = P. falciparum W2 assay; format: cell-based
L. major amastigote = L. major amastigote assay; format: cell-based
P. falciparum D6 = P. falciparum D6 assay; format: cell-based; details: strain D6
P. fal = P. fal assay of Table 13 (strain not given); format: cell-based, P. falciparum
[2] = Trypanosoma brucei, concentration giving 50% inhibition of growth of T brucei brucei Lister 427 cells, read-out: Tbb EC50
[3] = Homo sapiens, HepG2, 48 h, MTT, 48 hour incubation, read-out: HepG2 IC50
[4] = Plasmodium falciparum, strain C235
[5] = Plasmodium falciparum, strain W2, read-out: P. falciparum W2 (EC50)
[6] = Trypanosoma brucei, read-out: Tbb EC50, concentration giving 50% inhibition of growth of T brucei brucei Lister 427 cells
[7] = concentration giving 50% inhibition of growth of T brucei brucei Lister 427 cells, read-out: Tbb EC50

O=S(=O)(c1ccc(-c2ccc3ncnc(Nc4ccc(OCc5ccc(F)cc5)c(Cl)c4)c3c2)cc1)N1CCOCC1 [Compound 20j, N-(3-Chloro-4-((4-fluorobenzyl)oxy)phenyl)-6-(4-(morpholinosulfonyl)phenyl)quinazolin-4-amine Hydrochloride]
EC50 [1, 2]: 1340 nM
EC50 ([1]; concentration giving 50% inhibition of growth of T brucei brucei Lister 427 cells, listed as NEU-566, Hydrochloride, read-out: Tbb EC50): 1300 nM
inhibition at 10 µM (T. cruzi; Trypanosoma cruzi): -1%
EC50 (L. major promastigote; Leishmania major): 1.7 µM
IC50 (HepG2 cells; [3]): > 15 µM
EC50 (P. falciparum C235; [4]): 240 nM
EC50 (P. falciparum W2; [5]): 360 nM
EC50 (L. major amastigote; Leishmania major): > 15 µM
EC50 (P. falciparum D6; Plasmodium falciparum): 170 nM

COc1cccc(COc2ccc(Nc3ncnc4ccc(-c5ccc(S(=O)(=O)N6CCOCC6)cc5)cc34)cc2Cl)c1 [Compound 20k, N-(3-Chloro-4-((3-methoxybenzyl)oxy)phenyl)-6-(4-(morpholinosulfonyl)phenyl)quinazolin-4-amine Hydrochloride]
EC50 [1, 2]: 1430 nM
EC50 ([1]; concentration giving 50% inhibition of growth of T brucei brucei Lister 427 cells, listed as NEU-567, Hydrochloride, read-out: Tbb EC50): 1400 nM
inhibition at 10 µM (T. cruzi; Trypanosoma cruzi): 5%
EC50 (L. major promastigote; Leishmania major): 15 µM
IC50 (HepG2 cells; [3]): > 15 µM
EC50 (P. falciparum C235; [4]): 350 nM
EC50 (P. falciparum W2; [5]): 690 nM
EC50 (L. major amastigote; Leishmania major): 15 µM
EC50 (P. falciparum D6; Plasmodium falciparum): 230 nM

O=S(=O)(c1ccc(-c2ccc3ncnc(Nc4ccc(OCc5ccc(C(F)(F)F)c(F)c5)c(Cl)c4)c3c2)cc1)N1CCOCC1 [Compound 20l, N-(3-Chloro-4-((3-fluoro-4-(trifluoromethyl)benzyl)oxy)-phenyl)-6-(4-(morpholinosulfonyl)phenyl)quinazolin-4-amine Hydrochloride]
EC50 [1, 2]: 540 nM
inhibition at 10 µM (T. cruzi; Trypanosoma cruzi): 21%
EC50 (L. major promastigote; Leishmania major): 14 µM
IC50 (HepG2 cells; [3]): > 15 µM
EC50 (P. falciparum C235; [4]): 640 nM
EC50 (P. falciparum W2; [5]): 1110 nM
EC50 (L. major amastigote; Leishmania major): 2.5 µM
EC50 (P. falciparum D6; Plasmodium falciparum): 570 nM

O=S(=O)(c1ccc(-c2ccc3ncnc(Nc4ccc(OCc5cc(F)cc(F)c5F)c(Cl)c4)c3c2)cc1)N1CCOCC1 [Compound 20m, N-(3-Chloro-4-((2,3,5-trifluorobenzyl)oxy)phenyl)-6-(4-(morpholinosulfonyl)phenyl)quinazolin-4-amine Hydrochloride]
EC50 [1, 2]: 1120 nM
EC50 ([1]; concentration giving 50% inhibition of growth of T brucei brucei Lister 427 cells, listed as NEU-569, Hydrochloride, read-out: Tbb EC50): 1100 nM
inhibition at 10 µM (T. cruzi; Trypanosoma cruzi): 14%
EC50 (L. major promastigote; Leishmania major): 3 µM
IC50 (HepG2 cells; [3]): > 3 µM
EC50 (P. falciparum C235; [4]): 240 nM
EC50 (P. falciparum W2; [5]): 450 nM
EC50 (L. major amastigote; Leishmania major): 3 µM
EC50 (P. falciparum D6; Plasmodium falciparum): 140 nM

O=S(=O)(c1ccc(-c2ccc3ncnc(Nc4ccc(OCc5cccc(F)c5)cc4)c3c2)cc1)N1CCOCC1 [Compound 20n, N-(4-((3-Fluorobenzyl)oxy)phenyl)-6-(4-(morpholinosulfonyl)phenyl)quinazolin-4-amine]
EC50 [1, 2]: 650 nM
inhibition at 10 µM (T. cruzi; Trypanosoma cruzi): 10%
EC50 (L. major promastigote; Leishmania major): 0.48 µM
IC50 (HepG2 cells; [3]): > 15 µM
EC50 (P. falciparum C235; [4]): 850 nM
EC50 (P. falciparum W2; [5]): 2000 nM
EC50 (L. major amastigote; Leishmania major): 0.47 µM
EC50 (P. falciparum D6; Plasmodium falciparum): 440 nM

COc1cc(Nc2ncnc3ccc(-c4ccc(S(=O)(=O)N5CCOCC5)cc4)cc23)ccc1OCc1cccc(F)c1 [Compound 20o, N-(4-((3-Fluorobenzyl)oxy)-3-methoxyphenyl)-6-(4-(morpholinosulfonyl)phenyl)quinazolin-4-amine]
EC50 [1, 2]: 1880 nM
EC50 ([1]; concentration giving 50% inhibition of growth of T brucei brucei Lister 427 cells, listed as NEU-570, read-out: Tbb EC50): 1900 nM
inhibition at 10 µM (T. cruzi; Trypanosoma cruzi): 2%
EC50 (L. major promastigote; Leishmania major): > 15 µM
IC50 (HepG2 cells; [3]): > 15 µM
EC50 (P. falciparum C235; [4]): 600 nM
EC50 (P. falciparum W2; [5]): 650 nM
EC50 (L. major amastigote; Leishmania major): > 15 µM
EC50 (P. falciparum D6; Plasmodium falciparum): 440 nM

Fc1cccc(COc2ccc(Nc3ncnc4ccc(-c5ccc(N6CCOCC6)cc5)cc34)cc2Cl)c1 [Compound 23b, N-(3-Chloro-4-((3-fluorobenzyl)oxy)phenyl)-6-(4-morpholinophenyl)quinazolin-4-amine]
EC50 [1, 6]: 1910 nM
EC50 ([1]; read-out: Tbb EC50, concentration giving 50% inhibition of growth of T brucei brucei Lister 427 cells, listed as NEU-733): 1900 nM
inhibition at 10 µM (T. cruzi; Trypanosoma cruzi): 10%
EC50 (L. major promastigote; Leishmania major): 4.4 µM
IC50 (HepG2 cells; [3]): 9.6 µM
EC50 (P. falciparum C235; [4]): 290 nM
EC50 (P. falciparum W2; [5]): 1100 nM
EC50 (L. major amastigote; Leishmania major): > 15 µM
EC50 (P. falciparum D6; Plasmodium falciparum): 270 nM

Fc1cccc(COc2ccc(Nc3ncnc4ccc(-c5ccc(CN6CCOCC6)cc5)cc34)cc2Cl)c1 [Compound 23d]
EC50 [1, 7]: 990 nM
EC50 (T. cruzi): 0.6 µM
EC50 (L. major promastigote): 2.7 µM
IC50 (HepG2 cells; MTT, 48 hour incubation, read-out: HepG2 IC50): 12.9 µM
EC50 (P. falciparum C235; strain C235): 85 nM
EC50 (P. falciparum W2; strain W2, read-out: P. falciparum W2 (EC50)): 100 nM
EC50 (L. major amastigote): 5.9 µM
EC50 (P. falciparum D6): 64 nM

Fc1cccc(COc2ccc(Nc3ncnc4ccc(-c5cccc(N6CCCCC6)c5)cc34)cc2Cl)c1 [Compound 23g, N-(3-Chloro-4-((3-fluorobenzyl)oxy)phenyl)-6-(3-(piperidin-1-yl)phenyl)quinazolin-4-amine]
EC50 [1, 6]: 760 nM
inhibition at 10 µM (T. cruzi; Trypanosoma cruzi): 24%
EC50 (L. major promastigote; Leishmania major): > 15 µM
IC50 (HepG2 cells; Homo sapiens, HepG2, 48 h, read-out: HepG2 IC50, MTT, 48 hour incubation): > 15 µM
EC50 (P. falciparum C235; Plasmodium falciparum): 1100 nM
EC50 (P. falciparum W2; Plasmodium falciparum, W2, read-out: P. falciparum W2 (EC50)): 1800 nM
EC50 (L. major amastigote; Leishmania major): > 15 µM
EC50 (P. falciparum D6; Plasmodium falciparum): 640 nM

O=C(c1cccc(-c2ccc3ncnc(Nc4ccc(OCc5cccc(F)c5)c(Cl)c4)c3c2)c1)N1CCCCC1 [Compound 23k, (3-(4-((3-Chloro-4-((3-fluorobenzyl)oxy)phenyl)amino)-quinazolin-6-yl)phenyl)(piperidin-1-yl)methanone]
EC50 [1, 6]: 140 nM
EC50 (T. cruzi; Trypanosoma cruzi): > 50 µM
EC50 (L. major promastigote; Leishmania major): 3.5 µM
IC50 (HepG2 cells; [3]): > 6 µM
EC50 (P. falciparum C235; [4]): 570 nM
EC50 (P. falciparum W2; [5]): 960 nM
EC50 (L. major amastigote; Leishmania major): 3.5 µM
EC50 (P. falciparum D6; Plasmodium falciparum): 520 nM

Clc1cc(Nc2ncnc3ccc(-c4cccc(N5CCOCC5)c4)cc23)ccc1OCc1ccccc1 [Compound 23m, N-(4-(Benzyloxy)-3-chlorophenyl)-6-(3-morpholinophenyl)-quinazolin-4-amine]
EC50 [1, 2]: 230 nM
EC50 (T. cruzi; Trypanosoma cruzi): 1.3 µM
EC50 (L. major promastigote; Leishmania major): 6.6 µM
IC50 (HepG2 cells; [3]): > 20 µM
EC50 (P. falciparum C235; [4]): 720 nM
EC50 (P. falciparum W2; [5]): 1700 nM
EC50 (L. major amastigote; Leishmania major): > 15 µM
EC50 (P. falciparum D6; Plasmodium falciparum): 790 nM

c1ccc(COc2ccc(Nc3ncnc4ccc(-c5cccc(N6CCOCC6)c5)cc34)cc2)cc1 [Compound 23n, N-(4-(Benzyloxy)phenyl)-6-(3-morpholinophenyl)-quinazolin-4-amine]
EC50 [1, 2]: 180 nM
inhibition at 10 µM (T. cruzi; Trypanosoma cruzi): 37%
EC50 (L. major promastigote; Leishmania major): 2.7 µM
IC50 (HepG2 cells; [3]): > 20 µM
EC50 (P. falciparum C235; [4]): 20000 nM
EC50 (P. falciparum W2; [5]): 20000 nM
EC50 (L. major amastigote; Leishmania major): > 15 µM
EC50 (P. falciparum D6; Plasmodium falciparum): 20000 nM

c1ccc(Nc2ncnc3ccc(-c4cccc(N5CCOCC5)c4)cc23)cc1 [Compound 23o, 6-(3-Morpholinophenyl)-N-phenylquinazolin-4-amine]
EC50 [1, 2]: 11000 nM
EC50 (T. cruzi; Trypanosoma cruzi): 6.72 µM
EC50 (L. major promastigote; Leishmania major): 9.4 µM
IC50 (HepG2 cells; [3]): 7.02 µM
EC50 (P. falciparum C235; [4]): 4600 nM
EC50 (P. falciparum W2; [5]): 3300 nM
EC50 (L. major amastigote; Leishmania major): > 15 µM
EC50 (P. falciparum D6; Plasmodium falciparum): 3100 nM

O=S(=O)(c1ccc(-c2ccc3c(Nc4ccc(OCc5ccccc5)c(Cl)c4)ccnc3c2)cc1)N1CCOCC1 [NEU-944, N-(4-(Benzyloxy)-3-chlorophenyl)-7-(4-(morpholinosulfonyl)phenyl)quinolin-4-amine]
EC50 [1, 2]: 240 nM
EC50 (T. cruzi; Trypanosoma cruzi): 3.5 µM
EC50 (P. fal; Plasmodium falciparum): 16 nM

CN1CCN(S(=O)(=O)c2ccc(-c3ccc4ccnc(Nc5ccc(OCc6cccc(F)c6)c(Cl)c5)c4c3)cc2)CC1 [NEU-950, N-(3-Chloro-4-((3-fluorobenzyl)oxy)phenyl)-7-(4-((4-methylpiperazin-1-yl)sulfonyl)phenyl)isoquinolin-1-amine]
EC50 [1, 2]: 1800 nM
EC50 (T. cruzi; Trypanosoma cruzi): > 50 µM
EC50 (L. major promastigote; Leishmania major): > 15 µM
EC50 (L. major amastigote; Leishmania major): > 15 µM
EC50 (P. fal; Plasmodium falciparum): 40 nM

CN1CCN(S(=O)(=O)c2ccc(-c3ccc4c(Nc5ccc(OCc6cccc(F)c6)c(Cl)c5)nccc4c3)cc2)CC1 [NEU-951, N-(3-Chloro-4-((3-fluorobenzyl)oxy)phenyl)-6-(4-((4-methylpiperazin-1-yl)sulfonyl)phenyl)isoquinolin-1-amine]
EC50 [1, 2]: 100 nM
EC50 (T. cruzi; Trypanosoma cruzi): > 50 µM
EC50 (L. major promastigote; Leishmania major): 2.7 µM
EC50 (L. major amastigote; Leishmania major): > 15 µM
EC50 (P. fal; Plasmodium falciparum): 110 nM

CN1CCN(S(=O)(=O)c2ccc(-c3ccc4ncc(C#N)c(Nc5ccc(OCc6cccc(F)c6)c(Cl)c5)c4c3)cc2)CC1 [NEU-993]
EC50 [1, 7]: 1100 nM
EC50 (L. major promastigote): > 15 µM
EC50 (P. fal): 82 nM
